From ChEMBL document CHEMBL1201862, “PubChem BioAssay data set” (2004)
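Following 48 hours of exposure in 96-well plates, responses at five concentrations were used to interpolate endpoints linearly. The concentration for 50% growth inhibition is given as GI50.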 The source made the active and inactive calls. No stated cut-off is given here; in the data, active = GI50 up to about 1.1 µM and inactive = higher.

Columns and labels:
Assay in all cases: NCI anticancer screen, dose series, 48 h
RPMI-8226 = tested on: RPMI-8226
MDA-N = tested on: MDA-N
SNB-75 = tested on: SNB-75
SW-620 = tested on: SW-620
MOLT-4 = tested on: MOLT-4
SF-539 = tested on: SF-539
SN12C = tested on: SN12C
COLO 205 = tested on: COLO 205
MCF7 = tested on: MCF7
SF-268 = tested on: SF-268
KM12 = tested on: KM12
SNB-19 = tested on: SNB-19
HOP-92 = tested on: HOP-92
SF-295 = tested on: SF-295
CAKI-1 = tested on: CAKI-1
IGROV-1 = tested on: IGROV-1
LOX IMVI = tested on: LOX IMVI
UACC-62 = tested on: UACC-62
786-0 = tested on: 786-0

Measured: GI50

O=C(O)c1nnsc1-c1ccc(-c2snnc2C(=O)O)cc1
inactive: RPMI-8226 29.4 µM | MDA-N > 100 µM | SNB-75 > 100 µM | SW-620 39.5 µM | MOLT-4 17.4 µM | SF-539 33.7 µM | SN12C > 100 µM | COLO 205 > 100 µM | MCF7 27.7 µM | SF-268 > 100 µM | KM12 > 100 µM | SNB-19 > 100 µM | HOP-92 68.4 µM | SF-295 > 100 µM | CAKI-1 58.7 µM | IGROV-1 > 100 µM | LOX IMVI 31.8 µM | UACC-62 > 100 µM | 786-0 43.2 µM

COc1ccc(C(=O)/C=C2\C(=O)Nc3ccc(Br)cc32)cc1
inactive: RPMI-8226 1.72 µM | MDA-N 5.81 µM | SNB-75 14.3 µM | SW-620 2.32 µM | MOLT-4 2.41 µM | SF-539 7.93 µM | SN12C 2.88 µM | COLO 205 2.3 µM | MCF7 6.44 µM | SF-268 16.4 µM | KM12 3.21 µM | SNB-19 16.7 µM | HOP-92 3.24 µM | SF-295 16.2 µM | CAKI-1 8.63 µM | IGROV-1 2.84 µM | LOX IMVI 1.99 µM | UACC-62 13.9 µM | 786-0 1.97 µM

CCOC(=O)/C=C(\C(=O)OCC)n1cc(C)c(=O)n(Cc2cn(COCCOC(C)=O)nn2)c1=O
inactive: RPMI-8226 5.09 µM | MDA-N 20.2 µM | SNB-75 21 µM | SW-620 2.94 µM | MOLT-4 3.79 µM | SF-539 3.61 µM | SN12C 18.1 µM | COLO 205 2.86 µM | MCF7 6.78 µM | SF-268 14.7 µM | KM12 16.2 µM | SNB-19 19 µM | HOP-92 1.61 µM | SF-295 19.5 µM | CAKI-1 2.84 µM | IGROV-1 16.7 µM | LOX IMVI 15.9 µM | UACC-62 17.8 µM | 786-0 5.46 µM

OCC1OC(N2CCN(C3OC(CO)C(O)C(O)C3O)CC2)C(O)C(O)C1O (centres undefined)
inactive: RPMI-8226 > 100 µM | MDA-N > 100 µM | SNB-75 > 100 µM | SW-620 > 100 µM | MOLT-4 > 100 µM | SF-539 > 100 µM | SN12C > 100 µM | COLO 205 > 100 µM | MCF7 > 100 µM | SF-268 > 100 µM | KM12 > 100 µM | SNB-19 > 100 µM | HOP-92 > 100 µM | SF-295 > 100 µM | CAKI-1 > 100 µM | IGROV-1 > 100 µM | LOX IMVI > 100 µM | UACC-62 > 100 µM | 786-0 > 100 µM

Cc1[nH]c(=O)nc(NCCNCCO)c1C(=O)Nc1c2ccccc2nc2ccccc12
inactive: RPMI-8226 > 100 µM | MDA-N > 100 µM | SNB-75 > 100 µM | SW-620 > 100 µM | MOLT-4 > 100 µM | SF-539 > 100 µM | SN12C > 100 µM | COLO 205 > 100 µM | MCF7 > 100 µM | KM12 > 100 µM | SNB-19 > 100 µM | HOP-92 > 100 µM | SF-295 > 100 µM | CAKI-1 > 100 µM | IGROV-1 > 100 µM | LOX IMVI > 100 µM | UACC-62 > 100 µM | 786-0 > 100 µM

COC(=O)C1=C(O)C(C(=O)OC)[C@]2(O)[C@H](C(=O)OC)[C@H]1C[C@@H](c1ccc(C(F)(F)F)cc1)[C@H]2C(=O)OC (some centres undefined)
inactive: RPMI-8226 2.51 µM | MDA-N 3.27 µM | SNB-75 4.13 µM | SW-620 2.76 µM | MOLT-4 2.07 µM | SF-539 1.59 µM | SN12C 4.47 µM | COLO 205 3.18 µM | MCF7 3.5 µM | SF-268 4.47 µM | KM12 5.37 µM | SNB-19 3.87 µM | HOP-92 5.27 µM | SF-295 4 µM | CAKI-1 3.34 µM | IGROV-1 5.15 µM | LOX IMVI 2.45 µM | UACC-62 3.87 µM | 786-0 3.44 µM

COc1cc2c3c4c1OCc1c5c(cc(c1-4)CC3[N+](C)(C)CC2)OCO5 (centres undefined)
inactive: RPMI-8226 > 100 µM | MDA-N > 100 µM | SNB-75 26.7 µM | SW-620 > 100 µM | MOLT-4 > 100 µM | SF-539 11.2 µM | SN12C 3.21 µM | COLO 205 > 100 µM | MCF7 > 100 µM | SF-268 2.79 µM | KM12 > 100 µM | SNB-19 4.33 µM | HOP-92 > 100 µM | SF-295 6.05 µM | CAKI-1 > 100 µM | IGROV-1 > 100 µM | LOX IMVI > 100 µM | UACC-62 > 100 µM | 786-0 4.33 µM

CC1(C)N=C(/C(C#N)=[N+](/[O-])C(=O)c2ccccc2)C(C)(C)N1O
inactive: RPMI-8226 > 100 µM | MDA-N > 100 µM | SNB-75 > 100 µM | SW-620 > 100 µM | MOLT-4 > 100 µM | SF-539 > 100 µM | SN12C > 100 µM | COLO 205 > 100 µM | MCF7 > 100 µM | SF-268 > 100 µM | KM12 > 100 µM | SNB-19 > 100 µM | HOP-92 > 100 µM | SF-295 > 100 µM | CAKI-1 > 100 µM | IGROV-1 > 100 µM | LOX IMVI > 100 µM | UACC-62 > 100 µM | 786-0 > 100 µM

CC(C)Nc1n[nH]c(=O)n1C(C)C
inactive: RPMI-8226 > 100 µM | MDA-N > 100 µM | SNB-75 99.3 µM | SW-620 > 100 µM | MOLT-4 > 100 µM | SF-539 > 100 µM | SN12C > 100 µM | COLO 205 > 100 µM | MCF7 > 100 µM | SF-268 > 100 µM | KM12 > 100 µM | SNB-19 > 100 µM | HOP-92 > 100 µM | SF-295 > 100 µM | CAKI-1 > 100 µM | IGROV-1 > 100 µM | LOX IMVI > 100 µM | UACC-62 > 100 µM | 786-0 > 100 µM

NC(=O)CSc1nc2ccccc2c(=O)n1N
inactive: RPMI-8226 > 100 µM | MDA-N > 100 µM | SNB-75 > 100 µM | SW-620 > 100 µM | MOLT-4 > 100 µM | SF-539 > 100 µM | SN12C > 100 µM | COLO 205 > 100 µM | MCF7 > 100 µM | SF-268 > 100 µM | KM12 > 100 µM | SNB-19 > 100 µM | HOP-92 > 100 µM | SF-295 > 100 µM | CAKI-1 > 100 µM | IGROV-1 > 100 µM | LOX IMVI > 100 µM | UACC-62 > 100 µM | 786-0 > 100 µM
